Results reported in BigSolDB 2.1.

NC(N)=S
solubility (mole fraction)
Settings | 303.15 K | 308.15 K | 313.15 K | 318.15 K | 323.15 K | 328.15 K | 333.15 K | 338.15 K | 343.15 K
in acetonitrile | 0.00752 | 0.00805 | 0.00864 | 0.00915 | 0.00972 | 0.0101 | 0.0108 | 0.011 | 0.0112
in benzene | 0.00283 | 0.00313 | 0.0034 | 0.00372 | 0.00395 | 0.00436 | 0.00496 | 0.00564 | 0.0065
in chlorobenzene | 0.00127 | 0.00144 | 0.00157 | 0.00174 | 0.00189 | 0.00211 | 0.0023 | 0.00256 | 0.00277
in ethanol | 0.0283 | 0.0322 | 0.0354 | 0.0401 | 0.0465 | 0.0531 | 0.0592 | 0.0662 | 0.0751
in ethyl acetate | 0.0199 | 0.021 | 0.0221 | 0.023 | 0.0244 | 0.0264 | 0.0286 | 0.0307 | 0.0327
in isopropanol | 0.0258 | 0.0286 | 0.0325 | 0.0361 | 0.0408 | 0.0445 | 0.049 | 0.0534 | 0.0588
in m-xylene | 0.0022 | 0.00249 | 0.00277 | 0.00311 | 0.00342 | 0.00375 | 0.00422 | 0.00485 | 0.00556
in methanol | 0.0605 | 0.0654 | 0.0728 | 0.0804 | 0.0932 | 0.106 | 0.123 | – | –
in n-butanol | 0.0207 | 0.0225 | 0.0248 | 0.0273 | 0.0297 | 0.0332 | 0.0361 | 0.0396 | –
in n-octanol | 0.0211 | 0.0242 | 0.028 | 0.032 | 0.0354 | 0.0394 | 0.0445 | 0.0488 | 0.0526
in n-propanol | 0.0242 | 0.0265 | 0.0292 | 0.0324 | 0.036 | 0.0398 | 0.0451 | 0.0499 | 0.0544
in toluene | 0.0025 | 0.00289 | 0.00307 | 0.00336 | 0.00372 | 0.00405 | 0.00452 | 0.00525 | 0.0059
